Results from patent publication US20240051992A1, “THIOPHOSPHOPEPTIDES FOR ULTRAFAST TARGETING OF THE GOLGI APPARATUS” (BRANDEIS UNIVERSITY, priority 2021, published 2024).
Where “and” joins values, the source holds several entries; their conditions need not be identical. Equal values may be shown once. Read-outs that look alike come from different tables or passages of the source.

How the values were obtained:
[1] = Critical micelle concentration (CMC) determination by dynamic light scattering; assay type: physicochemical; conditions: thiophosphopeptide in deionized water, pH 7.4, DLS
Method: Critical micelle concentration (CMC) determination: A series of solutions of compounds (pS1, pS2), from the concentration of 0.0625 μM to 400 μM, were prepared in deionized water and adjusted the pH to 7.4. The count rates of the solutions were measured and recorded by an ALV/DLS/SLS-5000 Light Scattering System, which were converted to the intensity of scattered light and then plotted against concentrations to determine the CMC values. Then, ALP (0.1 U/mL) was added to the series of solutions and after 24 h, the same procedures were proceeded to determine CMC values of dephosphorylated pS1 and pS2 (S1 and S2).

[2] = Transmission electron microscopy of pS1 with or without ALP; assay type: physicochemical; conditions: 5 μM, without ALP
Method: Transmission Electron Microscopy Experiments: The 400 mesh copper grids coated with carbon film was glowing discharged and sample solutions (5 μL of each) was placed onto the grids. After 30 seconds, the sample solution was removed, and the grids were stained by uranyl acetate (2% v/v) and allowed to dry in air. TEM images were obtained with Morgagni 268 transmission electron microscope at the HV of 80 kV with filament of 2.

[3] = test system: alkaline phosphatase (ALP)
Method: Determination of Dephosphorylation Rates in vitro: To determine the dephosphorylation rates of thiophosphopeptides in vitro, pS1, pO1, pS2, pO2 solutions (PBS, pH 7.4) were prepared at concentration of 120 μM and ALP was added into the solutions to make the final concentration of ALP to 0.1 U/mL at 37° C. At the designated time, the same volume of methanol was added to eliminate the activity of ALP. LC/MS was used analyse the results.

Saos-2 cells = experiment: CLSM rate of fluorescence increase at Golgi, Saos-2; assay type: cell-based; conditions: pS1 10 μM
Method: (§1) Cell Lines: All cell lines used (HeLa, Saos-2, SJSA-1, OVSAHO, HCC1937, HepG2, OVCAR-4, SKOV-3, MCF-7, HEK293, HS-5) were purchased from the American Type Culture Collection (ATCC, Manassas, VA, USA). HeLa, HepG2, MCF-7 and HEK293 cells were cultured in MEM medium with 10% FBS and 1% P/S (100 U mL^−1 penicillin and 100 μg mL^−1 streptomycin, Invitrogen Life Technologies). Saos-2, SKOV-3 cells were cultured in McCoy's 5A medium with 15% FBS and 1% P/S. HS-5 cells were cultured in DMEM medium with 10% FBS and 1% P/S. SJSA-1, OVSAHO, HCC1937, OVCAR-4 cells were cultured in RPMI-1640 medium with 10% FBS and 1% P/S. All the cells were cultured at 37° C. in a humidified atmosphere of 5% CO2. To determine the cytotoxicity of the compounds, cells were seeded in 96-well cell plate at 1.0×10^4 cells/well for 24 h followed by culture medium removal, and then fresh culture medium containing compounds were added. For fluorescence imaging, cells were seeded in confocal dish at 1.5×10^5 cells/dish for 24 h followed by the addition of fresh medium containing compounds, and then the fluorescence of cells were taken by ZEISS LSM 880 confocal laser scanning microscope with the 63× oil lens. […]

SJSA-1 cells = experiment: CLSM rate of fluorescence increase at Golgi, SJSA-1; assay type: cell-based; conditions: pS1 10 μM
Method: as §1

OVSAHO cells = experiment: CLSM rate of fluorescence increase at Golgi, OVSAHO; assay type: cell-based; conditions: pS1 10 μM
Method: as §1

HCC1937 cells = experiment: CLSM rate of fluorescence increase at Golgi, HCC1937; assay type: cell-based; conditions: pS1 10 μM
Method: as §1

HepG2 cells = experiment: CLSM rate of fluorescence increase at Golgi, HepG2; assay type: cell-based; conditions: pS1 10 μM
Method: as §1

OVCAR4 cells = experiment: CLSM rate of fluorescence increase at Golgi, OVCAR-4; assay type: cell-based; conditions: pS1 10 μM
Method: as §1

SKOV3 cells = experiment: CLSM rate of fluorescence increase at Golgi, SKOV-3; assay type: cell-based; conditions: pS1 10 μM
Method: as §1

MCF7 cells = experiment: CLSM rate of fluorescence increase at Golgi, MCF-7; assay type: cell-based; conditions: pS1 10 μM
Method: as §1

HEK293 cells = experiment: CLSM rate of fluorescence increase at Golgi, HEK293; assay type: cell-based; conditions: pS1 10 μM
Method: as §1

HS-5 cells = experiment: CLSM rate of fluorescence increase at Golgi, HS-5; assay type: cell-based; conditions: pS1 10 μM
Method: as §1

Golgi of HeLa cells [4] = experiment: CLSM fluorescence imaging of Golgi accumulation in HeLa cells; conditions: for Golgi fluorescence: 4 minutes
HeLa cells = experiment: Cytotoxicity against HeLa cells; assay type: cell-based; conditions: 24 h
Method: (§2) Cell Lines: All cell lines used (HeLa, Saos-2, SJSA-1, OVSAHO, HCC1937, HepG2, OVCAR-4, SKOV-3, MCF-7, HEK293, HS-5) were purchased from the American Type Culture Collection (ATCC, Manassas, VA, USA). HeLa, HepG2, MCF-7 and HEK293 cells were cultured in MEM medium with 10% FBS and 1% P/S (100 U mL^−1 penicillin and 100 μg mL^−1 streptomycin, Invitrogen Life Technologies). Saos-2, SKOV-3 cells were cultured in McCoy's 5A medium with 15% FBS and 1% P/S. HS-5 cells were cultured in DMEM medium with 10% FBS and 1% P/S. SJSA-1, OVSAHO, HCC1937, OVCAR-4 cells were cultured in RPMI-1640 medium with 10% FBS and 1% P/S. All the cells were cultured at 37° C. in a humidified atmosphere of 5% CO2. To determine the cytotoxicity of the compounds, cells were seeded in 96-well cell plate at 1.0×10^4 cells/well for 24 h followed by culture medium removal, and then fresh culture medium containing compounds were added. For fluorescence imaging, cells were seeded in confocal dish at 1.5×10^5 cells/dish for 24 h followed by the addition of fresh medium containing compounds, and then the fluorescence of cells were taken by ZEISS LSM 880 confocal laser scanning microscope with the 63× oil lens.

[5] = Cytotoxicity against HEK293 cells; assay type: cell-based; conditions: human
Method: as §2

[6] = Cytotoxicity against HS-5 cells; assay type: cell-based; conditions: human
Method: as §2

Golgi of HeLa cells [7] = experiment: Staining of pS2-treated HeLa cells with tetracysteine probe FlAsH-EDT2; assay type: cell-based; conditions: pS2 10 μM, 4 h; FlAsH-EDT2 1 μM, 1 h
Method: Staining cells with FlAsH-EDT 2: Briefly, after incubating HeLa cell lines (1.5×10^5) in 3.5 cm confocal dish for 24 h at 37° C. in a humidified atmosphere of 5% CO2, we discarded the medium and added fresh medium containing pS2 (10 μM) and incubated them together for 4 h. After 4 h, medium was removed followed by three-time wash by cell imaging buffer to eliminate FBS. Then, we added FlAsH-EDT2 solution (cell imaging buffer, 1 μM) into the confocal dish and incubated the HeLa cells at 37° C. for 1 h. Meanwhile, we prepared 1,2-Ethanedithiol (EDT) solution (cell imaging buffer, 250 μM) and after the one-hour incubation of HeLa cells with FlAsH-EDT2, FlAsH-EDT2 was discarded and EDT solution was added to the confocal dish to eliminate the unspecific binding of FlAsH-EDT2 for 10 min. Ten minutes later, EDT solution was removed and cells were washed with cell imaging buffer three times and the fluorescence images were taken by ZEISS LSM 880 confocal laser scanning microscope.

Compound: NBD-(β-Ala-f-f-NH—(CH2)2-thiophosphate [pS1]
- critical micelle concentration (CMC) [1]: 6.0 µM
- assemblies seen by TEM [2]: micelles
- dephosphorylation by ALP (rate, in words) ([3]; pH 7.4): fast dephosphorylation
- fluorescence intensity increase at the Golgi (Saos-2 cells): increase significantly
- fluorescence intensity increase at the Golgi (SJSA-1 cells): increase significantly
- fluorescence intensity increase at the Golgi (OVSAHO cells): increase significantly
- fluorescence intensity increase at the Golgi (HCC1937 cells): increase significantly
- fluorescence intensity increase at the Golgi (HepG2 cells): slightly
- fluorescence intensity increase at the Golgi (OVCAR4 cells): slightly
- fluorescence intensity increase at the Golgi (SKOV3 cells): much slowly
- fluorescence intensity increase at the Golgi (MCF7 cells): much slowly
- fluorescence intensity increase at the Golgi (HEK293 cells): much slowly
- fluorescence intensity increase at the Golgi (HS-5 cells): much slowly
- time until distinctive fluorescence appears at the Golgi (Golgi of HeLa cells [4]; 500 nM): 15 min
- Golgi fluorescence (Golgi of HeLa cells [4]; 2 μM): much weaker fluorescence at the Golgi
- Golgi fluorescence (Golgi of HeLa cells [4]; 5 μM): green fluorescence clearly still presents at the Golgi, but little at the ER
- enhancement of fluorescence intensity at the Golgi from 1 minute to 8 minutes (Golgi of HeLa cells [4]; 10 μM): about 7 times
- onset of fluorescence after addition (Golgi of HeLa cells [4]; 10 μM, 0 min): appears almost instantly
- Golgi fluorescence (Golgi of HeLa cells [4]; 10 μM): bright green fluorescence presents in Golgi and weak fluorescence in ER
- colocalisation of fluorescence with CellLight Golgi-RFP (Golgi of HeLa cells [4]; 10 μM, 8 minutes): overlaps with the red fluorescence from all Golgi-RFP
- cell morphology in DIC image (Golgi of HeLa cells [4]; 10 μM, 20 min): well-spread HeLa cells
- concentration as low as which S1 accumulates at Golgi (Golgi of HeLa cells [4]; HeLa cells treated with pS1): 500 nM
- fluorescence at Golgi of pretreated cells in fresh culture medium (exocytosis) (Golgi of HeLa cells [4]; HeLa pretreated with pS1, fresh medium): drops only slightly over time
- rate of Golgi accumulation when protein disulfide isomerases (PDIs) are inhibited (Golgi of HeLa cells [4]; PDI inhibition): slight decrease of the rate of Golgi accumulation
- accumulation at Golgi after cytochalasin D (CytD) (Golgi of HeLa cells [4]; pS1 10 μM, CytD 0.5, 1.0 μg/mL, 30 min pretreatment): decreases the accumulation of S1 at Golgi in a concentration-dependent manner
- rate of fluorescence increase at Golgi after ALP inhibitor DQB (Golgi of HeLa cells [4]; pS1 10 μM, DQB 20 μM, 30 min pretreatment): reduce the rate of fluorescence increase at the Golgi
- accumulation at Golgi with N-ethylmaleimide (NEM) (Golgi of HeLa cells [4]; pS1 10 μM, NEM 5 mM, 16 min): almost completely eliminates the accumulation of S1 at Golgi
- rate of fluorescence increase at Golgi after phosphatase inhibitor cocktail set 3 (PIC) (Golgi of HeLa cells [4]; pS1 10 μM, PIC 4000×, 30 min pretreatment): reduce the rate of fluorescence increase at the Golgi
- rate of fluorescence increase at Golgi after phospholipase C (PLC) (Golgi of HeLa cells [4]; pS1 10 μM, PLC 0.2 U, 30 min pretreatment): slightly faster increase of fluorescence in the Golgi
- rate of fluorescence increase at Golgi after methyl-β-cyclodextrin (mβCD) (Golgi of HeLa cells [4]; pS1 10 μM, mβCD 5 mM, 30 min pretreatment): significantly decreases the rate of the fluorescence increase at the Golgi
- accumulation at Golgi with Golgi disruptor brefeldin A (BFA) (Golgi of HeLa cells [4]; with BFA): abolishes the accumulation

Compound: O=C(Cc1ccc2ccccc2c1)N[C@H](Cc1ccccc1)C(=O)N[C@H](Cc1ccccc1)C(=O)NCCSP(=O)(O)O [pS2]
- critical micelle concentration (CMC) [1]: 9.5 µM
- dephosphorylation by ALP (rate, in words) ([3]; 120 μM, ALP 0.1 U/mL, PBS pH 7.4, 37° C.): rapid dephosphorylation
- conversion to dephosphorylated product ([3]; ALP 0.1 U/mL, about 16 minutes): nearly fully converted
- selectivity against cancer cells (HeLa vs HEK293 and HS-5) (HeLa cells; compared with S2): more selective than S2
- IC50 (HeLa cells; HeLa cells): 2.8 µM and ~3 µM
- inhibitory activity against HeLa cells relative to pO2 (HeLa cells; HeLa cells): an order of magnitude higher than that of pO2
- rescue of HeLa cells by cell death inhibitors (Z-VAD-FMK, NAc, Nec-1, DFO, Fer-1, disulfiram) (HeLa cells; pS2 10 μM): unable to rescue
- IC50 at 24 h [5]: > 100 µM
- IC50 at 24 h [6]: > 100 µM
- FlAsH-EDT2 staining of treated cells (Golgi of HeLa cells [7]): fluorescent at the Golgi of the HeLa cells

Compound: NBD-(β-Ala-f-f-NH—(CH2)2-phosphate [pO1, reference compound]
- dephosphorylation by ALP (rate, in words) ([3]; pH 7.4): taking longer time for dephosphorylation than that of pS1
- fluorescence in cells (Golgi of HeLa cells [4]; 10 μM, 8 minutes): almost no fluorescence
- fluorescence in cells (Golgi of HeLa cells [4]; 100, 50, 20 μM, 4 hours): several scattered fluorescent puncta in cells
- cellular uptake and localisation (Golgi of HeLa cells [4]; HeLa cells): requires hours for cellular uptake and largely remains in endosomes
